In brackets after ≈: the same amount, converted by molar mass. One block for each compound: values may come before it.
Experiments:
Trichomonas vaginalis [1] = experiment: In vitro anti-Trichomonas vaginalis activity (method of Example 1); type: cell-based, T. vaginalis 30001; conditions: for IC50: Trichomonas vaginalis, 37° C., 24 hours, read-out: Anti-T. vaginalis ED50; for activity against T. vaginalis (in words): method of Example 1
Method: (§1) About 1.0-2.0 ml of a nutrient medium, for example, the modified Diamond's (TPS) medium at pH 7.05, together with about 10% by volume of heat-inactivated serum and about 1% by volume of an antibiotic-antimycoticmixture, is placed in each well of a multi-well plate. To this mixture, an aliquot of a suspension of G. lamblia cells containing about 10^6 organism is added. Subsequently, each well is inoculated with a known concentration of one of the pyridinone hydrazones, for example, 1-[(4-chlorophenyl)-4(1H)-pyridinone]-2-[(4-chlorophenyl)methylene]-hydrazone. The multiwell plate containing the individual culture samples is incubated under anaerobic conditions at about 37° C. for about 16-24 hours. The number of viable cells remaining in each well are then counted, such as with a hemocytometer. The percentage of survival is determined by comparison to controls incubated with DMSO (dimethylsulfoxide) and the effective concentration (in parts per million) for 50% inhibition of growth (ED50) is determined. It is established that the lower the ED50 the higher the activity of the 1-substituted-4-(1H)-pyridinone hydrazone tested.
(§2) In each well of a multiwell plate is placed 1.4 ml of Diamond's TPS medium (See Table II) at pH 7.05, 10% by volume of heat-inactivated fetal bovine serium, and 1% by volume of an antibiotic-antimycotic solution (see Table III). A suspension of Giardia lamblia is centrifuged at 2,500 xg for 6 minutes. The pelleted cells are resuspended in a small volume of Diamond's medium, the cells are counted and each well inoculated with approximately 10^6 organisms. A stock solution of 1-[(4-chlorophenyl)-4(1H)-pyridinone]-2-[(4-methylthiophenyl)-methylene]hydrazone in dimethylsulfoxide is made at a concentration of 150 μg/ml. The wells are then inoculated with various concentrations of the drug. The plates are incubated for 24 hours at 37° C. in an anaerobic Gas Pak jar. After 24 hours of incubation, each well is mixed and counted for viable organisms using a hemacytometer. The percentage of survival is determined by comparing the treated wells to controls treated with dimethylsulfoxide.
Employing the method of Example 1, centrifuged cells of T. vaginalis 30001 are incubated with 1-[(4-chlorophenyl)-4(1H)-pyridinone]-2-[(4-methylthiophenyl)methylene]hydrazone at 37° C. for 24 hours.

Giardia lamblia [2] = experiment: In vitro anti-Giardia lamblia activity (multiwell culture, viable count by hemacytometer, 24 h); type: cell-based; conditions: Giardia duodenalis, 50% inhibition of growth, 37° C., about 16-24 hours, anaerobic, read-out: Anti-G. lamblia ED50
Method: as §1, §2

Giardia lamblia [3] = conditions: humans; cited from earlier work
[4] = humans; cited from earlier work
Trichomonas vaginalis [5] = conditions: humans; cited from earlier work
[6] = in animals; cited from earlier work

IC50 (Trichomonas vaginalis [1]): 2.63 µg/mL (≈ 7.68 µM)
IC50 (Giardia lamblia [2]): 1.45 µg/mL (≈ 4.24 µM)
SMILES: Clc1ccc(C=NN=c2ccn(-c3ccc(Cl)cc3)cc2)cc1 [(1), 1-[(4-chlorophenyl)-4(1H)-pyridinone]-2-[(4-chlorophenyl)methylene]hydrazone]
activity against T. vaginalis (in words) (Trichomonas vaginalis [1]): active against T. vaginalis

IC50 (Trichomonas vaginalis [1]): 2.88 µg/mL (≈ 8.14 µM)
IC50 (Giardia lamblia [2]): 1.1 µg/mL (≈ 3.11 µM)
SMILES: CSc1ccc(C=NN=c2ccn(-c3ccc(Cl)cc3)cc2)cc1 [(3), 1-[(4-chlorophenyl)-4(1H)-pyridinone]-2-[(4-methylthiophenyl)methylene]hydrazone]
activity against T. vaginalis (in words) (Trichomonas vaginalis [1]): effective anti-T. vaginalis agent

IC50 (Trichomonas vaginalis [1]): 1.75 µg/mL (≈ 4.65 µM)
IC50 (Giardia lamblia [2]): 1.2 µg/mL (≈ 3.19 µM)
SMILES: Clc1ccc(-n2ccc(=NN=Cc3ccc(Cl)cc3Cl)cc2)cc1 [(7)]

IC50 (Trichomonas vaginalis [1]): 4 µg/mL (≈ 12.3 µM)
IC50 (Giardia lamblia [2]): 2.25 µg/mL (≈ 6.91 µM)
SMILES: Fc1ccc(C=NN=c2ccn(-c3ccc(Cl)cc3)cc2)cc1 [(8), 1-[(4-chlorophenyl)-4(1H)-pyridinone]-2-[(4-fluorophenyl)methylene]hydrazone]

IC50 (Trichomonas vaginalis [1]): < 1 µg/mL
IC50 (Giardia lamblia [2]): 6.2 µg/mL (≈ 36.2 µM)
SMILES: Cc1ncc([N+](=O)[O-])n1CCO [metronidazole]
therapy of trichomoniasis (Trichomonas vaginalis [5]): Successful therapy of trichomoniasis
treatment of giardiasis infection (Giardia lamblia [3]): successfully treated
carcinogenicity [6]: carcinogenic in animals

Second part, the compound before the results:

SMILES: N#Cc1ccc(C=NN=c2ccn(-c3ccc(Cl)cc3)cc2)cc1 [(2), 1-[(4-chlorophenyl)-4(1H)-pyridinone]-2-[(4-cyanophenyl)methylene]hydrazone]
IC50 (Trichomonas vaginalis [1]): 3.3 µg/mL (≈ 9.92 µM)
activity against T. vaginalis (in words) (Trichomonas vaginalis [1]): active against T. vaginalis
IC50 (Giardia lamblia [2]): 2.25 µg/mL (≈ 6.76 µM)

SMILES: Clc1ccc(-n2ccc(=NN=Cc3ccc(Cl)c(Cl)c3)cc2)cc1 [(4), 1-[(4-chlorophenyl)-4(1H)-pyridinone]-2-[(3,4-dichlorophenyl)methylene]hydrazone]
IC50 (Trichomonas vaginalis [1]): 3 µg/mL (≈ 7.96 µM)
IC50 (Giardia lamblia [2]): 1.5 µg/mL (≈ 3.98 µM)

SMILES: FC(F)(F)c1ccc(C=NN=c2ccn(-c3ccc(Cl)cc3)cc2)cc1 [(5), 1-[(4-chlorophenyl)-4(1H)-pyridinone]-2-[(4-trifluoromethylphenyl)methylene]hydrazone]
IC50 (Trichomonas vaginalis [1]): 3.25 µg/mL (≈ 8.65 µM)
IC50 (Giardia lamblia [2]): 1.42 µg/mL (≈ 3.78 µM)

SMILES: Clc1ccc(-n2ccc(=NN=Cc3ccc(Br)cc3)cc2)cc1 [(6), 1-[(4-chlorophenyl)-4(1H)-pyridinone]-2-[(4-bromophenyl)methylene]hydrazone]
IC50 (Trichomonas vaginalis [1]): 3.63 µg/mL (≈ 9.39 µM)
IC50 (Giardia lamblia [2]): 1.25 µg/mL (≈ 3.23 µM)

SMILES: CCN(CC)CCCC(C)Nc1c2ccc(Cl)cc2nc2ccc(OC)cc12 (stereo not drawn) [Atabrine]
treatment of giardiasis infection (Giardia lamblia [3]): successfully treated

SMILES: O=C1OCCN1/N=C/c1ccc([N+](=O)[O-])o1 [furazolidone]
treatment of giardiasis infection (Giardia lamblia [3]): successfully treated
adverse side effects [4]: adverse side effects

From patent publication US4321267A, “1-Substituted-4 (1H)-pyridinone hydrazones active against Giardia lamblia and Trichomonas vaginalis” (priority 1980, dated 1982)
